Assay results published in patent publication US12286443B2, “Bycyclic JAK inhibitors and uses thereof” (Insilico Medicine IP Limited, priority 2019, dated 2025).

target: T1, JAK1 (Homo sapiens, UniProt P23458); assay: Inhibition of JAK1 kinase, LANCE Ultra TR-FRET assay; assay type: biochemical; conditions: 2 nM JAK1, 2x ATP 76 μM, 15 min pre-incubation, 90 min reaction, 23° C.
T1 construct: purchased Invitrogen PV4775
Experimental: (§1) Exemplary compounds were assayed to determine potency in inhibiting activity of JAK1-3 and TYK2 kinases by determining IC50 values.
(§2) The sources of test materials and equipment are as follows: JAK1 (Invitrogen, Cat. No PV4775), JAK2 (Invitrogen, Cat. No PV4210), JAK3 (Invitrogen, Cat. No PV4080), TYK2 (Invitrogen, Cat. No PR8440C), ATP (Sigma, Cat. No. A7699-1G), DMSO (Sigma, Cat. No. D2650), DTT (Sigma, Cat. No. 43815), 384 wells_compound plate (Greiner, Cat. No. 781280), 384 wells_assay plate (Perkin Elmer, Cat. No. 6007299), LANCE Ultra ULight™-JAK-1 peptide (Perkin Elmer, Cat. No. TRF0121), LANCET™ Eu-W1024 Anti-phosphotyrosine (PT66) (Perkin Elmer, Cat. No. AD0069), LANCET™ Detection Buffer(Perkin Elmer, Cat. No. CR97-100).
(§3) The concentrations of test compounds varied from 100 μM to 1.7 nM with 3-fold dilution, 11 points, in duplicates while the concentrations of the reference compound, Tofacitinib, varied from 1 μM to 0.017 nM with 3-fold dilution, 11 points, in duplicates.
(§4) The assay buffer contained 50 mM HEPES (pH 7.5), 0.01% Brij-35, 10 mM MgCl2, 1 mM EDTA, 2 mM DTT. Incubations were carried out at 23° C.
(§5) Prior to the assay, enzyme, peptide substrate and serially diluted test compounds were pre-incubated together in assay buffer (5 μL) for 15 minutes (peptide substrate concentration: 50 nM; JAK enzyme concentrations: 2 nM JAK1; […]; […] and 4 nM TYK2). And the assay was initiated by the addition of 5 μL assay buffer containing 2× final ATP concentration (these are the 2×ATP concentrations: 76 μM JAK1; 24 μM JAK2; 8 μM JAK3 and 30 μM TYK2). Following the 90-minute incubation, antibody conjugated with Eu is dissolved in detection buffer to add into wells and then incubated for 60 minutes. The 10 μL detection buffer contains EDTA to stop the enzymatic reaction. The plate is analyzed by Perkin Elmer Envision on TR-FRET mode. The high ratio of 665/615 represents no inhibition of kinase reaction while the low ratio of 665/615 represents complete inhibition of kinase reaction.
(§6) Curves are fit by XLFIT5 as inhibition rate % vs. log [compound concentration] using 4 parameters logistic model 205.
(§7) In the table, “A” indicates an IC50 of less than 100 nM, “B” indicates an IC50 range from 100 nM to 500 nM; “C” indicates an IC50 range from 500 nM to 2 μM; and “D” indicates an IC50 greater than 2 μM. Also, “na” indicates data is not available.

T1 sequence (P23458 whole entry): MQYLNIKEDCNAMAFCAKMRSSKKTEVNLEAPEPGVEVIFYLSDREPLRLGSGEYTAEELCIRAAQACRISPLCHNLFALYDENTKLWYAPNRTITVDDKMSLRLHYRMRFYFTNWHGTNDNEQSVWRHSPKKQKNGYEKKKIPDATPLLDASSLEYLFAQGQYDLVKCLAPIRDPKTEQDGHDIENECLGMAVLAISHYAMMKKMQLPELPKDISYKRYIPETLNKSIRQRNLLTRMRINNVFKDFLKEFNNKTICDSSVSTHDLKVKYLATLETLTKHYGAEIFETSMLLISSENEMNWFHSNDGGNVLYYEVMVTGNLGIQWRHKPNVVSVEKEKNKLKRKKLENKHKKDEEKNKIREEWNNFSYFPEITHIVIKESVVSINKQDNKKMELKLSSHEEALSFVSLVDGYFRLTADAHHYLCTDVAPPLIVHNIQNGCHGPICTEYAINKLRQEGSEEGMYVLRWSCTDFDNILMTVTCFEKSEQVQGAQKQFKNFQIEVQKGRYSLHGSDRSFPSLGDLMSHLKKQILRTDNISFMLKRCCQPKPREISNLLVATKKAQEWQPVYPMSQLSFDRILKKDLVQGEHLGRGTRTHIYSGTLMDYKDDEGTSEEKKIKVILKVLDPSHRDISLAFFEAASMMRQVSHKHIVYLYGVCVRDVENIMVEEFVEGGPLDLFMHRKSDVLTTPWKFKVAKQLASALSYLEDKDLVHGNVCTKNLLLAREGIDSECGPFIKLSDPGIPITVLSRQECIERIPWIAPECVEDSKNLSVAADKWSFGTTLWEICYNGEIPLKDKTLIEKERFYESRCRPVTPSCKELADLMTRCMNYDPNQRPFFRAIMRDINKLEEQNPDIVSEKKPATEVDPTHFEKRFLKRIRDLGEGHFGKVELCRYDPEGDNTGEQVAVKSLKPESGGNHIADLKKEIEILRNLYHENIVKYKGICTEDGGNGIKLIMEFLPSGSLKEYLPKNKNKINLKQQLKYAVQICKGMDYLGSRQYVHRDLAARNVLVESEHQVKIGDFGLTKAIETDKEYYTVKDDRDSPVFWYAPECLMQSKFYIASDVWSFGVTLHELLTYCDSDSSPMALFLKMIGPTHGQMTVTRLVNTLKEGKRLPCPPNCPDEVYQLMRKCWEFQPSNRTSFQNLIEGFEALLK

| SMILES | IC50 [nM] |
| --- | --- |
| CN(C)S(=O)(=O)CCNC(=O)c1noc2c1CN(c1ncnc3[nH]ccc13)CC2 [Compound 156] | 100 to 500 |
| CNS(=O)(=O)CCNC(=O)c1noc2c1CN(c1ncnc3[nH]ccc13)CC2 [Compound 157] | < 100 |
| O=C(NCCC1CCCC1)c1noc2c1CN(c1ncnc3[nH]ccc13)CC2 [Compound 158] | 100 to 500 |
| O=C(NCCC(O)C1CCCC1)c1noc2c1CN(c1ncnc3[nH]ccc13)CC2 (stereo not shown) [Compound 159] | 500 to 2000 |
| CN(C)C1CN(CCNC(=O)c2noc3c2CN(c2ncnc4[nH]ccc24)CC3)C1 [Compound 160] | 500 to 2000 |
| O=C(NCCN1CCS(=O)(=O)CC1)c1noc2c1CN(c1ncnc3[nH]ccc13)CC2 [Compound 161] | 500 to 2000 |
| O=C(NCCN1CCOCC1)c1noc2c1CN(c1ncnc3[nH]ccc13)CC2 [Compound 162] | > 2000 |

target: T2, TYK2 (Homo sapiens, UniProt P29597); assay: Inhibition of TYK2 kinase, LANCE Ultra TR-FRET assay; assay type: biochemical; conditions: 4 nM TYK2, 2x ATP 30 μM, 15 min pre-incubation, 90 min reaction, 23° C., read-out: tyk IC50
T2 construct: purchased Invitrogen PR8440C
T2 sequence (P29597 whole entry): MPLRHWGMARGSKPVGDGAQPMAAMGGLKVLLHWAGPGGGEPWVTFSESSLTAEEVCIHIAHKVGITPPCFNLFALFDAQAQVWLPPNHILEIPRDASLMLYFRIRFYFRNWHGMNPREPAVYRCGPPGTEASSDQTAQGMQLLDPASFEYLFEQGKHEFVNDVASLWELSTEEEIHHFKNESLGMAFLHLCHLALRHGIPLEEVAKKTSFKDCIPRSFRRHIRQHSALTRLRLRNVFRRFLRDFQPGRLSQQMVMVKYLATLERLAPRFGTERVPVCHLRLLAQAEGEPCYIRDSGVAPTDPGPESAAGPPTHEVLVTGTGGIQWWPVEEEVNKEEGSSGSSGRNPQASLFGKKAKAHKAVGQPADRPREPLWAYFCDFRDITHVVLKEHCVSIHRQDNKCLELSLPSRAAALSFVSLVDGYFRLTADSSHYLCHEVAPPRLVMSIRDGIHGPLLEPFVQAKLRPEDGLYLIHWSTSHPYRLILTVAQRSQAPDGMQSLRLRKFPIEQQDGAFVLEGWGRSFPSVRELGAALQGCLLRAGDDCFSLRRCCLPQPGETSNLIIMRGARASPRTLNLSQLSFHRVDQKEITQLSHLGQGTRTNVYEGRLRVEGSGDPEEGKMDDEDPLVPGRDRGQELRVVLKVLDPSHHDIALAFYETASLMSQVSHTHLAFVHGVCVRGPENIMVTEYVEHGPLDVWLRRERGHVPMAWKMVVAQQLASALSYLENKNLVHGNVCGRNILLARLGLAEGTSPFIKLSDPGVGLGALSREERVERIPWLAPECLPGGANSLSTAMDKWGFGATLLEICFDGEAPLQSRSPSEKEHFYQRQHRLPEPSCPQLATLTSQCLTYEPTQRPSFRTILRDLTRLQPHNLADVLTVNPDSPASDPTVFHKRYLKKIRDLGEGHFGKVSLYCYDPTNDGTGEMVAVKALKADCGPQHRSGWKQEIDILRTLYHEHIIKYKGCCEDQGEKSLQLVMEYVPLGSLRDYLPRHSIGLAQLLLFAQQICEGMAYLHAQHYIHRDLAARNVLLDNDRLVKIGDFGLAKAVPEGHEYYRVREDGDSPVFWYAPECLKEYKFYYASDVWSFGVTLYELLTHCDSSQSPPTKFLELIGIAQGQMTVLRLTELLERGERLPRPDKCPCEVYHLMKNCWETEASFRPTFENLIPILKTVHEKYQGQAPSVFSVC
Experimental: as §1, §2, §3, §4, §5, §6, §7

| SMILES | IC50 [nM] |
| --- | --- |
| CN(C)S(=O)(=O)CCNC(=O)c1noc2c1CN(c1ncnc3[nH]ccc13)CC2 [Compound 156] | > 2000 |
| CNS(=O)(=O)CCNC(=O)c1noc2c1CN(c1ncnc3[nH]ccc13)CC2 [Compound 157] | > 2000 |
| O=C(NCCC1CCCC1)c1noc2c1CN(c1ncnc3[nH]ccc13)CC2 [Compound 158] | > 2000 |
| O=C(NCCC(O)C1CCCC1)c1noc2c1CN(c1ncnc3[nH]ccc13)CC2 (stereo not shown) [Compound 159] | > 2000 |
| CN(C)C1CN(CCNC(=O)c2noc3c2CN(c2ncnc4[nH]ccc24)CC3)C1 [Compound 160] | > 2000 |
| O=C(NCCN1CCS(=O)(=O)CC1)c1noc2c1CN(c1ncnc3[nH]ccc13)CC2 [Compound 161] | > 2000 |
| O=C(NCCN1CCOCC1)c1noc2c1CN(c1ncnc3[nH]ccc13)CC2 [Compound 162] | > 2000 |

target: T3, JAK2 (Homo sapiens, UniProt O60674); assay: Inhibition of JAK2 kinase, LANCE Ultra TR-FRET assay; assay type: biochemical; conditions: 2x ATP 24 μM, 15 min pre-incubation, 90 min reaction, 23° C.
T3 construct: purchased Invitrogen PV4210
T3 sequence (O60674 whole entry): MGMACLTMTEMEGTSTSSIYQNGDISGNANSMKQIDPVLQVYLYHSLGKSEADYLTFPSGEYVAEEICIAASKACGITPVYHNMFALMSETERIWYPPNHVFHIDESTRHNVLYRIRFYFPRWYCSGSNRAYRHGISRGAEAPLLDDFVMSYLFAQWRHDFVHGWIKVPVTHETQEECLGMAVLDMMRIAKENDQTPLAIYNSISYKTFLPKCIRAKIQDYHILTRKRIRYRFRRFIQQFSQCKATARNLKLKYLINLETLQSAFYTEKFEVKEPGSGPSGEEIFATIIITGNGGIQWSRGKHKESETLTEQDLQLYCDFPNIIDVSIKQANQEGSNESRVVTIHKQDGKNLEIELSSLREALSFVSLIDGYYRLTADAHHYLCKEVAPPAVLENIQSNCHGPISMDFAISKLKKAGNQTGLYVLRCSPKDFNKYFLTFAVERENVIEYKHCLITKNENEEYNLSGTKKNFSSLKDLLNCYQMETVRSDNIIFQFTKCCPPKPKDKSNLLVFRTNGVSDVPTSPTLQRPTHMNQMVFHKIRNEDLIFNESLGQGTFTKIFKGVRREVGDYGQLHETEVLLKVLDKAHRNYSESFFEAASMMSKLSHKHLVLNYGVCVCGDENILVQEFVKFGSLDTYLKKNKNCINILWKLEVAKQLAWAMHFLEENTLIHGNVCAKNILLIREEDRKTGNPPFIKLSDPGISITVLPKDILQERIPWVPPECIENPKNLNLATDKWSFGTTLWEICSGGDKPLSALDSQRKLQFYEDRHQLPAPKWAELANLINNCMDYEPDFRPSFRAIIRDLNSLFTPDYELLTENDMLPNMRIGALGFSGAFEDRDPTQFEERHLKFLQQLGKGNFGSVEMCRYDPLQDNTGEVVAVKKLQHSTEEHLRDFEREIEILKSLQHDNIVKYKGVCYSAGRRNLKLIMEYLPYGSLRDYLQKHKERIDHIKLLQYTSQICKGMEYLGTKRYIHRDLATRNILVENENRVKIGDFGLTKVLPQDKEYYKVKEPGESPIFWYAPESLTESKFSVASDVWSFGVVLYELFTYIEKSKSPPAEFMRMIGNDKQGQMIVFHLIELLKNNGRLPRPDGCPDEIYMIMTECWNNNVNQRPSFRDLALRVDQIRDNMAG
Experimental: as §1, §2, §3, §4, §5, §6, §7

| SMILES | IC50 [nM] |
| --- | --- |
| CN(C)S(=O)(=O)CCNC(=O)c1noc2c1CN(c1ncnc3[nH]ccc13)CC2 [Compound 156] | 100 to 500 |
| CNS(=O)(=O)CCNC(=O)c1noc2c1CN(c1ncnc3[nH]ccc13)CC2 [Compound 157] | 100 to 500 |
| O=C(NCCC1CCCC1)c1noc2c1CN(c1ncnc3[nH]ccc13)CC2 [Compound 158] | 100 to 500 |
| O=C(NCCC(O)C1CCCC1)c1noc2c1CN(c1ncnc3[nH]ccc13)CC2 (stereo not shown) [Compound 159] | > 2000 |
| CN(C)C1CN(CCNC(=O)c2noc3c2CN(c2ncnc4[nH]ccc24)CC3)C1 [Compound 160] | > 2000 |
| O=C(NCCN1CCS(=O)(=O)CC1)c1noc2c1CN(c1ncnc3[nH]ccc13)CC2 [Compound 161] | > 2000 |
| O=C(NCCN1CCOCC1)c1noc2c1CN(c1ncnc3[nH]ccc13)CC2 [Compound 162] | > 2000 |

target: T4, JAK3 (Homo sapiens, UniProt P52333); assay: Inhibition of JAK3 kinase, LANCE Ultra TR-FRET assay; assay type: biochemical; conditions: 2x ATP 8 μM, 15 min pre-incubation, 90 min reaction, 23° C.
T4 construct: purchased Invitrogen PV4080
T4 sequence (P52333 1-1124): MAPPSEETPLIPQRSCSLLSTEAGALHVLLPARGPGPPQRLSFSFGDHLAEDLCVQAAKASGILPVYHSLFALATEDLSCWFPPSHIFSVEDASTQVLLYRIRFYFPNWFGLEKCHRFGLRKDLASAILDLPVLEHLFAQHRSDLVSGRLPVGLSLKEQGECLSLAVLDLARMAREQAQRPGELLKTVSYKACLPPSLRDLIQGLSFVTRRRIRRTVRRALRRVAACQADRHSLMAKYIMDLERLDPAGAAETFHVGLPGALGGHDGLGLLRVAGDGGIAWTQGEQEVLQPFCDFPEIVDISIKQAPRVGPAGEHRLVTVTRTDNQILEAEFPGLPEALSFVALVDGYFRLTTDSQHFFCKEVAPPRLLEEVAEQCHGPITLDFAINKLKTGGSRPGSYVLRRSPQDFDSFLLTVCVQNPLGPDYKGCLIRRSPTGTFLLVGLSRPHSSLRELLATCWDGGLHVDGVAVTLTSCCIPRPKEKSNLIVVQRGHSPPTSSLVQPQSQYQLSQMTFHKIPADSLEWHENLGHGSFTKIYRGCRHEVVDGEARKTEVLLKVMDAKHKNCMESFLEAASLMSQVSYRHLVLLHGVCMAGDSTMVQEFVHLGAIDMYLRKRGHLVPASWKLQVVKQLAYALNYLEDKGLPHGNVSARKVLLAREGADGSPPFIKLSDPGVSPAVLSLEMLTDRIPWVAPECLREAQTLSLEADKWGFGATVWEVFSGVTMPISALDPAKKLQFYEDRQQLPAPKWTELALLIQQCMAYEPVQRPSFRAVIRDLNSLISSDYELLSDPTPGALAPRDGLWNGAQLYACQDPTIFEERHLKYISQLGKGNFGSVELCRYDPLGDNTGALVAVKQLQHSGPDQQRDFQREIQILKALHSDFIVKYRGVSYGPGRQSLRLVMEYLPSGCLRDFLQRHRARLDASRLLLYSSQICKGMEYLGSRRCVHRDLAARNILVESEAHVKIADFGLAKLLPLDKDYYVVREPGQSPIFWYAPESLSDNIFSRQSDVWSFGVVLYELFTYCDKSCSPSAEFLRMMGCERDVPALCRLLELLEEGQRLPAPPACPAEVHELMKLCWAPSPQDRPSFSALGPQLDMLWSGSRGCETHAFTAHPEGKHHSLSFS
Experimental: as §1, §2, §3, §4, §5, §6, §7

| SMILES | IC50 [nM] |
| --- | --- |
| CN(C)S(=O)(=O)CCNC(=O)c1noc2c1CN(c1ncnc3[nH]ccc13)CC2 [Compound 156] | 100 to 500 |
| CNS(=O)(=O)CCNC(=O)c1noc2c1CN(c1ncnc3[nH]ccc13)CC2 [Compound 157] | < 100 |
| O=C(NCCC1CCCC1)c1noc2c1CN(c1ncnc3[nH]ccc13)CC2 [Compound 158] | < 100 |
| O=C(NCCC(O)C1CCCC1)c1noc2c1CN(c1ncnc3[nH]ccc13)CC2 (stereo not shown) [Compound 159] | 100 to 500 |
| CN(C)C1CN(CCNC(=O)c2noc3c2CN(c2ncnc4[nH]ccc24)CC3)C1 [Compound 160] | 500 to 2000 |
| O=C(NCCN1CCS(=O)(=O)CC1)c1noc2c1CN(c1ncnc3[nH]ccc13)CC2 [Compound 161] | 500 to 2000 |
| O=C(NCCN1CCOCC1)c1noc2c1CN(c1ncnc3[nH]ccc13)CC2 [Compound 162] | 500 to 2000 |
